Test [1] has as its system Escherichia coli. Kind of test: Antibacterial activity against AcrB deficient Escherichia coli BW25113 assessed as inhibition of bacterial growth at 256 ug/ml after 18 hrs by microtitre broth dilution assay. Particulars: dose 256.0 µg/ml. It is filed as functional, organism-based. For orientation: In broth dilution the organism is exposed to a series of concentrations in liquid medium.

The test system of test [2] is Escherichia coli. Description: Potentiation of chloramphenicol-induced antibacterial activity against wild type Escherichia coli BW25113 assessed as chloramphenicol MIC at 256 ug/ml incubated for 18 hrs under aerobic condition by checkerboard titration assay (reference value: 16 ug/ml). Conditions: dose 256 µg/ml. It is filed as functional.
Test [3] relates to Escherichia coli. Description: Potentiation of TPP-induced antibacterial activity against wild type Escherichia coli BW25113 assessed as TPP MIC at 128 ug/ml incubated for 18 hrs under aerobic condition by checkerboard titration assay (reference value: 1024 ug/ml). In kind it is functional. Particulars: dose 128 µg/ml.
The test system of test [4] is Escherichia coli. Description: Potentiation of erythromycin-induced antibacterial activity against wild type Escherichia coli BW25113 assessed as fold reduction in erythromycin MIC at 128 ug/ml incubated for 18 hrs under aerobic condition by checkerboard titration assay relative to erythromycin MIC alone. It is filed as functional. Conditions: dose 128 µg/ml.
In test [5] the test system is Escherichia coli. Description: Antibacterial activity against Wild type Escherichia coli BW25113 assessed as inhibition of AcrB efflux pump by mesuring the glucose-induced nile red efflux at 200 uM preincubated with CCCP for 15 mins followed by compound addition after 15 mins nile red added and incubated for 3 hrs in shaker by fluorimetric analysis. In kind it is functional, organism-based. Particulars: time 195.0 min.

Test [6] relates to Escherichia coli. Kind of test: Potentiation of erythromycin-induced antibacterial activity against AcrB deficient Escherichia coli BW25113 assessed as erythromycin MIC at 128 ug/ml incubated for 18 hrs under aerobic condition by checkerboard titration assay (reference value: 32 ug/ml). In kind it is functional. Particulars: dose 128 µg/ml.
The test system of test [7] is Escherichia coli. Kind of test: Potentiation of chloramphenicol-induced antibacterial activity against AcrB deficient Escherichia coli BW25113 assessed as chloramphenicol MIC at 128 ug/ml incubated for 18 hrs under aerobic condition by checkerboard titration assay (reference value: 2 ug/ml). It is filed as functional. Particulars: dose 128 µg/ml.
In test [8] the test system is Escherichia coli. Description: Potentiation of rifampicin-induced antibacterial activity against wild type Escherichia coli BW25113 assessed as rifampicin MIC at 128 ug/ml incubated for 18 hrs under aerobic condition by checkerboard titration assay (reference value: 16 ug/ml). Conditions: dose 128 µg/ml. It is filed as functional.
Test [9] deals with Escherichia coli. Description: Potentiation of chloramphenicol-induced antibacterial activity against wild type Escherichia coli BW25113 assessed as chloramphenicol MIC at 128 ug/ml incubated for 18 hrs under aerobic condition by checkerboard titration assay (reference value: 16 ug/ml). Particulars: dose 128 µg/ml. It is filed as functional.
Test [10] concerns Cell membrane. Description: Disruption of inner membrane potential in wild type Escherichia coli BW25113 at 512 ug/ml preincubated for 10 mins followed by glucose stimulation and CCCP addition by DiOC2 probe based fluorimetric analysis. It is filed as subcellular. Particulars: dose 512.0 µg/ml.
In test [11] the test system is Escherichia coli. Description: Potentiation of rifampicin-induced antibacterial activity against wild type Escherichia coli BW25113 assessed as rifampicin MIC at 256 ug/ml incubated for 18 hrs under aerobic condition by checkerboard titration assay (reference value: 16 ug/ml). In kind it is functional. Conditions: dose 256 µg/ml.
For test [12], the system named is Cell membrane. Description: Induction of outer membrane permeabilization in wild type Escherichia coli BW25113 assessed as increase in nitrocefin hydrolysis at 512 ug/ml measured for 30 mins in presence of CCCP by spectrophotometry analysis. It is filed as subcellular. Particulars: dose 512.0 µg/ml.
Test [13] concerns Escherichia coli. Description: Antibacterial activity against wild type Escherichia coli BW25113 assessed as inhibition of bacterial growth at 256 ug/ml after 18 hrs by microtitre broth dilution assay. In kind it is functional, organism-based. Particulars: dose 256.0 µg/ml.
The test system of test [14] is Escherichia coli. Description: Potentiation of erythromycin-induced antibacterial activity against AcrB deficient Escherichia coli BW25113 assessed as erythromycin MIC at 256 ug/ml incubated for 18 hrs under aerobic condition by checkerboard titration assay (reference value: 32 ug/ml). In kind it is functional. Particulars: dose 256 µg/ml.
The test system of test [15] is Escherichia coli. Kind of test: Potentiation of erythromycin-induced antibacterial activity against wild type Escherichia coli BW25113 assessed as erythromycin MIC at 128 ug/ml incubated for 18 hrs under aerobic condition by checkerboard titration assay (reference value: 128 ug/ml). It is filed as functional. Particulars: dose 128 µg/ml.
The subject of test [16] is Escherichia coli. Kind of test: Potentiation of TPP-induced antibacterial activity against AcrB deficient Escherichia coli BW25113 assessed as TPP MIC at 256 ug/ml incubated for 18 hrs under aerobic condition by checkerboard titration assay (reference value: 256 ug/ml). In kind it is functional. Conditions: dose 256 µg/ml.
Test [17] relates to Escherichia coli. Kind of test: Potentiation of erythromycin-induced antibacterial activity against wild type Escherichia coli BW25113 assessed as erythromycin MIC at 256 ug/ml incubated for 18 hrs under aerobic condition by checkerboard titration assay (reference value: 128 ug/ml). In kind it is functional. Conditions: dose 256 µg/ml.
Test [18] deals with Escherichia coli. Description: Potency index, ratio of A3 MIC to compound MIC for potentiation of erythromycin-induced antibacterial activity against Escherichia coli BW25113. It is filed as functional.
Test [19] has as its system Escherichia coli. Kind of test: Potentiation of chloramphenicol-induced antibacterial activity against AcrB deficient Escherichia coli BW25113 assessed as chloramphenicol MIC at 256 ug/ml incubated for 18 hrs under aerobic condition by checkerboard titration assay (reference value: 2 ug/ml). In kind it is functional. Particulars: dose 256 µg/ml.
Test [20] relates to Escherichia coli. Description: Potentiation of TPP-induced antibacterial activity against wild type Escherichia coli BW25113 assessed as TPP MIC at 256 ug/ml incubated for 18 hrs under aerobic condition by checkerboard titration assay (reference value: 1024 ug/ml). In kind it is functional. Conditions: dose 256 µg/ml.
For test [21], the system named is Escherichia coli. Description: Potentiation of TPP-induced antibacterial activity against AcrB deficient Escherichia coli BW25113 assessed as TPP MIC at 128 ug/ml incubated for 18 hrs under aerobic condition by checkerboard titration assay (reference value: 256 ug/ml). In kind it is functional. Conditions: dose 128 µg/ml.
The test system of test [22] is Escherichia coli. Description: Potentiation of erythromycin-induced antibacterial activity against Escherichia coli BW25113 assessed as erythromycin MIC at 32 ug/ml incubated for 18 hrs under aerobic condition in presence of EDTA by checkerboard titration assay. Conditions: dose 32.0 µg/ml. It is filed as functional, organism-based.
Test [23] has as its system Escherichia coli. Description: Potentiation of rifampicin-induced antibacterial activity against wild type Escherichia coli BW25113 assessed as rifampicin MIC at 200 ug/ml incubated for 18 hrs under aerobic condition by checkerboard titration assay (reference value: 16 ug/ml). Conditions: dose 200 µg/ml. It is filed as functional.
The test system of test [24] is Escherichia coli. Description: Potentiation of erythromycin-induced antibacterial activity against AcrB deficient Escherichia coli BW25113 assessed as erythromycin MIC at 200 ug/ml incubated for 18 hrs under aerobic condition by checkerboard titration assay (reference value: 32 ug/ml). It is filed as functional. Particulars: dose 200 µg/ml.
The test system of test [25] is Escherichia coli. Kind of test: Potentiation of erythromycin-induced antibacterial activity against wild type Escherichia coli BW25113 assessed as erythromycin MIC at 200 ug/ml incubated for 18 hrs under aerobic condition by checkerboard titration assay (reference value: 128 ug/ml). Particulars: dose 200 µg/ml. In kind it is functional.
For test [26], the system named is Escherichia coli. Description: Potentiation of TPP-induced antibacterial activity against AcrB deficient Escherichia coli BW25113 assessed as TPP MIC at 200 ug/ml incubated for 18 hrs under aerobic condition by checkerboard titration assay (reference value: 256 ug/ml). It is filed as functional. Conditions: dose 200 µg/ml.
Test [27] relates to Escherichia coli. Description: Potentiation of chloramphenicol-induced antibacterial activity against AcrB deficient Escherichia coli BW25113 assessed as chloramphenicol MIC at 200 ug/ml incubated for 18 hrs under aerobic condition by checkerboard titration assay (reference value: 2 ug/ml). In kind it is functional. Conditions: dose 200 µg/ml.
Test [28] relates to Escherichia coli. Description: Potentiation of chloramphenicol-induced antibacterial activity against wild type Escherichia coli BW25113 assessed as chloramphenicol MIC at 200 ug/ml incubated for 18 hrs under aerobic condition by checkerboard titration assay (reference value: 16 ug/ml). It is filed as functional. Conditions: dose 200 µg/ml.
Test [29] has as its system Escherichia coli. Kind of test: Potentiation of TPP-induced antibacterial activity against wild type Escherichia coli BW25113 assessed as TPP MIC at 200 ug/ml incubated for 18 hrs under aerobic condition by checkerboard titration assay (reference value: 1024 ug/ml). In kind it is functional. Conditions: dose 200 µg/ml.

This is an account of results in ChEMBL document CHEMBL4715814, “Design, synthesis and biological activity evaluation of novel 4-subtituted 2-naphthamide derivatives as AcrB inhibitors” (2018).

One may read the MIC as the least concentration at which growth counts as inhibited.

Calls of active or inactive are those of the source. No cut-off for these calls is given here. Peptide text beside a SMILES is read from it. * marks the point of attachment. βNA = c1ccc2cc(N*)ccc2c1

Regarding `CC(C)NCCOc1cc(C(N)=O)cc2ccccc12`, the result in test [1], in [5] and in test [22] was Active. For the same compound, the minimum inhibitory concentration (MIC) in [2] amounted to 16 µg/mL; in [3], 1020 µg/mL; in test [6] it was 32 µg/mL; in test [7] it was 2 µg/mL; in test [8] it was 16 µg/mL; in [9] it was 16 µg/mL. The minimal inhibitory concentration (MIC) worked out at 16 µg/mL in test [11]; 32 µg/mL in [14]; 16 µg/mL in [15]; 256 µg/mL in test [16]; 16 µg/mL in test [17]; 2 µg/mL in [19]. The MIC in [20] worked out at 1020 µg/mL; in [21], 256 µg/mL. The “fold change (FC)” value in test [4] was determined as 8. Further, the outcome in test [10], in test [12] and in test [13] was inactive. In addition, in [18], the Ratio turned out to be 16.
Turning to `N=C(N)NCCC[C@H](NC(=O)[C@@H](N)Cc1ccccc1)C(=O)Nc1ccc2ccccc2c1` [PABETAN] (H-Phe-Arg-βNA), the MIC in [23] stood at 2 µg/mL; in test [24] it was 16 µg/mL; in test [25] it was 16 µg/mL; in [26], 256 µg/mL; in test [27], 2 µg/mL; in [28], 2 µg/mL. Also, in test [29], the MIC came out at 256 µg/mL.
